Test results: the supplement of paper PMC10307832

Tests used:
Assay in all cases: relative viability (nuclei count vs DMSO), 5 days (fraction); higher = more cells survive
Alisertib + Bortezomib = compound: COc1cc(Nc2ncc3c(n2)-c2ccc(Cl)cc2C(c2c(F)cccc2OC)=NC3)ccc1C(=O)O [Alisertib] + CC(C)C[C@H](NC(=O)[C@H](Cc1ccccc1)NC(=O)c1cnccn1)B(O)O [Bortezomib] (partner 0.002 µM)
Summary of the method: (§1)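 Relative viability was taken as the ratio of nuclei in treated wells to nuclei in vehicle wells. Lung cancer cell lines in 1536-well plates received compounds by pin tool one day after seeding, either one drug alone or a fixed anchor-drug dose plus five library-drug doses (not always all listed) in √10 steps. Nuclei were counted on 4× images after 5 days of treatment, and values are medians of duplicate plates.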

Alisertib + Pictilisib = compound: COc1cc(Nc2ncc3c(n2)-c2ccc(Cl)cc2C(c2c(F)cccc2OC)=NC3)ccc1C(=O)O [Alisertib] + CS(=O)(=O)N1CCN(Cc2cc3nc(-c4cccc5[nH]ncc45)nc(N4CCOCC4)c3s2)CC1 [Pictilisib] (partner 1 µM)
Summary of the method: as §1

Alisertib + Foretinib = compound: COc1cc(Nc2ncc3c(n2)-c2ccc(Cl)cc2C(c2c(F)cccc2OC)=NC3)ccc1C(=O)O [Alisertib] + COc1cc2c(Oc3ccc(NC(=O)C4(C(=O)Nc5ccc(F)cc5)CC4)cc3F)ccnc2cc1OCCCN1CCOCC1 [Foretinib] (partner 0.25 µM)
Summary of the method: as §1

Alisertib + Palbociclib = compound: COc1cc(Nc2ncc3c(n2)-c2ccc(Cl)cc2C(c2c(F)cccc2OC)=NC3)ccc1C(=O)O [Alisertib] + CC(=O)c1c(C)c2cnc(Nc3ccc(N4CCNCC4)cn3)nc2n(C2CCCC2)c1=O [Palbociclib] (partner 0.5 µM)
Summary of the method: as §1

Cell Line	relative viability (Alisertib + Bortezomib; first compound 0.005 µM)	relative viability (Alisertib + Bortezomib; first compound 0.01581 µM)	relative viability (Alisertib + Bortezomib; first compound 0.05 µM)	relative viability (Alisertib + Bortezomib; first compound 0.1581 µM)	relative viability (Alisertib + Bortezomib; first compound 0.5 µM)	relative viability (Alisertib + Pictilisib; first compound 0.005 µM)	relative viability (Alisertib + Pictilisib; first compound 0.01581 µM)	relative viability (Alisertib + Pictilisib; first compound 0.05 µM)	relative viability (Alisertib + Pictilisib; first compound 0.1581 µM)	relative viability (Alisertib + Pictilisib; first compound 0.5 µM)	relative viability (Alisertib + Foretinib; first compound 0.005 µM)	relative viability (Alisertib + Foretinib; first compound 0.01581 µM)	relative viability (Alisertib + Foretinib; first compound 0.05 µM)	relative viability (Alisertib + Foretinib; first compound 0.1581 µM)	relative viability (Alisertib + Foretinib; first compound 0.5 µM)	relative viability (Alisertib + Palbociclib; first compound 0.005 µM)	relative viability (Alisertib + Palbociclib; first compound 0.01581 µM)	relative viability (Alisertib + Palbociclib; first compound 0.05 µM)	relative viability (Alisertib + Palbociclib; first compound 0.1581 µM)	relative viability (Alisertib + Palbociclib; first compound 0.5 µM)
NCI-H1650	0.175	0.21	0.174	0.182	0.199	0.527	0.461	0.328	0.151	0.166	1.19	0.873	0.653	0.23	0.231	0.292	0.328	0.233	0.116	0.188
NCI-H1651	0.87	0.928	0.526	0.339	0.194	0.51	0.429	0.289	0.161	0.121	0.907	0.571	0.445	0.338	0.195	0.476	0.486	0.333	0.21	0.189
NCI-H1666	0.694	0.597	0.505	0.317	0.267	0.389	0.355	0.227	0.21	0.214	0.841	0.82	0.597	0.415	0.403	0.609	0.585	0.595	0.551	0.489
NCI-H1734	0.775	0.621	0.383	0.227	0.175	0.427	0.4	0.283	0.226	0.17	0.841	0.731	0.314	0.327	0.174	0.397	0.325	0.296	0.245	0.188
NCI-H1755	0.891	0.886	0.877	0.389	0.318	0.41	0.347	0.271	0.227	0.184	0.85	0.846	0.615	0.532	0.325	0.408	0.432	0.445	0.428	0.384
NCI-H1915	0.763	0.811	0.607	0.327	0.237	0.732	0.675	0.45	0.301	0.174	0.998	0.907	0.431	0.463	0.236	0.497	0.455	0.29	0.234	0.151
NCI-H1975	0.324	0.334	0.215	0.159	0.152	0.26	0.348	0.237	0.151	0.163	0.816	0.989	0.501	0.204	0.165	0.454	0.547	0.299	0.259	0.168
NCI-H1993	0.97	0.982	0.549	0.542	0.497	0.895	0.785	0.67	0.568	0.778	0.772	0.849	0.525	0.484	0.557	0.583	0.672	0.529	0.402	0.35
NCI-H2009	0.952	0.91	0.392	0.208	0.167	0.787	0.787	0.387	0.185	0.139	1.19	1.05	0.618	0.429	0.248	0.171	0.199	0.117	0.124	0.123
NCI-H2023	0.904	0.824	0.539	0.199	0.0763	0.193	0.194	0.191	0.128	0.0717	0.936	0.743	0.501	0.46	0.0916	0.349	0.288	0.174	0.125	0.0948
NCI-H2085	0.923	0.979	0.73	0.327	0.394	0.463	0.435	0.46	0.248	0.248	1.03	0.812	0.309	0.259	0.228	0.505	0.469	0.344	0.346	0.336
NCI-H2087	0.88	0.702	0.186	0.172	0.199	0.791	0.791	0.247	0.166	0.191	1.12	0.856	0.176	0.172	0.119	0.226	0.271	0.154	0.11	0.109
NCI-H2126	1.03	1.08	0.993	0.526	0.351	0.452	0.502	0.367	0.28	0.226	1.08	1.02	0.455	0.294	0.382	0.314	0.378	0.346	0.304	0.269
NCI-H2228	0.809	0.827	0.406	0.142	0.134	0.362	0.419	0.228	0.119	0.138	0.734	0.642	0.493	0.0956	0.114	0.641	0.689	0.378	0.118	0.125
NCI-H2347	0.733	1.09	0.911	0.584	0.466	0.534	0.431	0.41	0.376	0.429	0.733	0.84	0.863	0.454	0.459	0.427	0.429	0.438	0.387	0.362
NCI-H2405	0.932	0.929	0.95	0.494	0.298	0.433	0.358	0.365	0.274	0.176	1.02	0.992	0.838	0.371	0.286	0.497	0.504	0.495	0.317	0.257
